Data as given in US5753518A, “Method of determining affinity and kinetic properties” (Pharmacia AB, priority 1993, dated 1998).

Assays:
Assay type in all cases: binding, mouse
[1] = test system: monoclonal anti-theophylline antibody; test: Competitive kinetics: theophylline derivatives mixed with aminotheophylline-conalbumin conjugate over captured anti-theophylline Mab (BIAcore SPR); details: 500 nM ligand solution mixed with 620 nM conjugate solution; 10 μl/min for 90 seconds; FIG. 5
Experimental: (§1) A continuous flow of HBS (10 mM Hepes with 0.15M NaCl, 3.4 mM EDTA and 0.05% surfactant P20 at pH 7.4) was maintained over a BIAcore™ sensor chip CM5 (a gold-plated glass slide supporting a carboxymethyldextran layer via a monolayer of long-chain hydrocarbons; supplied by Pharmacia Biosensor AB, Uppsala, Sweden). The carboxylated matrix on the sensor surface was activated by a three-minute injection of a solution containing 0.2M N-ethyl-N'-(3-diethylaminopropyl)carbodiimide (EDC) and 0.05M N-hydroxysuccinimide (NHS). 100 μg/ml of rabbit anti-mouse Fc (RAMFc) antibodies (Pharmacia Biosensor AB, Uppsala, Sweden) in 10 mM acetate buffer, pH 4.75, were then injected followed by a pulse of ethanolamine-hydrochloride, pH 8.5, to block remaining NHS-ester groups.
Different solutions of the above prepared conalbumin conjugate varying in concentration from 100 to 1000 nM, were then injected and the binding curves were recorded.

[2] = test system: monoclonal anti-histamine antibody; test: Competitive kinetics: histamine and methylhistamine mixed with histamine-conalbumin conjugate over captured anti-histamine Mab (BIAcore SPR); details: 220 nM ligand solution mixed with 80 nM conjugate solution; 10 μl/min for 8 minutes; FIG. 6
Experimental: as §1
Different solutions of the above prepared conalbumin conjugate, varying in concentration from 100 to 1000 nM, were then injected and the binding curves were recorded. […] For the following competitive experiment, a concentration of 80 nM was chosen.

[3] = test system: monoclonal anti-p24 antibody (Mab 7); test: Competitive kinetics: synthetic p24 derived peptides mixed with p24 over captured anti-p24 Mab (BIAcore SPR); details: for affinity for the antibody (qualitative): p24 at 60 nM and the peptides at 44 μM, FIG. 4
Experimental: With the above prepared sensor surface docked into the BIAcore™ instrument, a solution of purified monoclonal anti-p24 antibody (Pharmacia Diagnostics AB, Uppsala, Sweden), hereinafter referred to as Mab 7, was injected, the anti-p24 monoclonal antibody thereby being captured by the immobilized RAMFc. Different solutions of HIV core protein p24 (Pharmacia Genetic Engineering, San Diego, USA), varying in concentration from 18.75 to 300 nM, were then injected and the binding curves, relative response in resonance units (RU) versus time in seconds, were recorded (1 RU corresponds to a mass change, caused by the binding of a protein, on the sensor surface of about 1 pg/mm^2; Stenberg, E., et al., J. Colloid and Interface Sci. 143 (1991) 513-526).
100 μl volumes of a 60 nM solution of p24 in HBS were mixed with 100 μl of different concentrations (5 nM to 1 mM) of two synthetic p24 derived peptides corresponding to (i) the regions 329-352 (peptide 7): […] (Mw =2494), and (ii) the regions 332-349 (peptide 5): […] (Mw =1841) (obtained from Dr Ake Engstrom, Department of Immunology, Biomedical Center, University of Uppsala, Sweden). The peptide sequences are according to Ratner et al., Nature 313, 227-284, 1985 and are numbered according to Myers G. et al., Database Human Retroviruses and AIDS, Los Alamos National Laboratory, Los Alamos, U.S.A., 1988. Each mixture was injected at 10 μl/min for two minutes over the sensor surface with captured anti-p24 antibody and the respective binding curves for each peptide were recorded. Peptide 5 was used at the concentrations: 0, 4.91, 14.75, 44.26, 132.78, 398.33, and 1195.00 μM; and peptide 7 at the concentrations 0, 0.005, 0.016, 0.049, 0.147, 0.441, and 1.323 μM.
The binding curves for peptide 5 are shown in overlay plot in FIG. 2, and a corresponding overlay plot of the binding curves for peptide 7 is shown in FIG. 3. […] Evidently, these two peptides have quite different affinities for the immobilized antibody.

## Cn1c(=O)c2c(ncn2CC(=O)O)n(C)c1=O [acetic acid derivative of theophylline, 7-theophylline acetic acid]
[1]
  affinity for the antibody (relative ranking): much lower affinity

## NCCc1c[nH]cn1 [histamine]
[2]
  affinity for the antibody (relative ranking): methylhistamine has a higher affinity for the antibody than histamine itself

## DCKTILKALGPAATLEEMMTACQG [peptide 7, synthetic p24 derived peptide, regions 329-352]
[3]; mixed with 60 nM p24 solution, 10 μl/min for two minutes, FIG. 3
  peptide concentration at which competing kinetics is seen: 5 nM
[3]
  affinity for the antibody (qualitative): high affinity

## TILKALGPAATLEEMMTA [peptide 5, synthetic p24 derived peptide, regions 332-349]
[3]; mixed with 60 nM p24 solution, 10 μl/min for two minutes, FIG. 2
  peptide concentration at which competition is evident: evident only at μM concentrations
[3]
  affinity for the antibody (qualitative): low affinity

## aminotheophylline
[1]
  affinity for the antibody (relative ranking): highest affinity

## methylhistamine
[2]
  affinity for the antibody (relative ranking): higher affinity
